Patent US9897592B2, “Methods for identifying arthropod repellents and attractants, and compounds and compositions identified by such methods” (The Regents of the University of California, priority 2013, dated 2018)

Columns and labels:
CO2 receptor = settings: cited from earlier work
cpA neuron [1] = assay: Inhibition screen: odorant overlaid on 0.15% CO2 stimulus, cpA response; format: cell-based, Aedes aegypti; settings: for % Inhibition: 1-s odorant stimulus (10^−2) in the middle of a 3-s 0.15% CO2 stimulus, vs solvent overlay
Description: Percent inhibition was calculated by comparing mean odorant overlay responses to mean solvent overlay responses, and error bars are s.d.
(§1) CpA-off and sham treated mosquitoes were pre-treated for 3 min in an upended 1 L glass dish in which 100 μl of fresh butyryl chloride (1%) or paraffin oil was allowed to vaporize for 10-20 min. The odor delivery system for different screens is shown in FIG. 7b; solvent responses during the same recording session were subtracted. Inhibition screen was tested. For the ultra-prolonged activator the 3-s stimulus was delivered from a 10 ml disposable pipette using a CS-55 stimulus controller (Syntech), CO2 was delivered, and responses to subsequent odor stimuli were calculated by subtracting baseline activity 1 s prior to each stimulus. When responses to repeated pulses of cyclopentanone and CO2 were compared, baseline activity between seconds 5 and 6 following each stimulus was subtracted. Spike counting was done manually or with Igor Pro6.2 (Wavemetrics) with the Neuromatic v2.00 macro (by Jason Rothman), and peak-to-peak spike amplitudes for FIG. 8 were analysed in Clampfit 10.3 (Molecular Devices).

cpA neuron [2] = assay: Single-sensillum recording: activation of cpA neuron by odorants; format: cell-based, Aedes aegypti; settings: A. aegypti cpA, 0.5-s pulses, odorants 10^−2 in paraffin oil or water, solvent response subtracted
Description: FIG. 3b depicts representative traces and mean responses of the A. aegypti cpA neuron to 0.5-s pulses of 138 predicted compounds screened using single-sensillum recordings, in which odorants were diluted to 10^−2 in paraffin oil or water, and responses to solvent have been subtracted, n=2-6, and error bars are s.d.
FIG. 5f is a bar graph illustrating the mean responses of the A. aegypti cpA neuron to 0.5-s pulses of 22 newly predicted compounds screened as in FIG. 3b, where salmon bars correspond to odorants found in human odor, odorants were diluted to 10^−2 in paraffin oil or water, and responses to solvent have been subtracted, and n=2-5.
Adult female A. aegypti (Linnaeus 1762) (Rockefeller strain) A. gambiae sensu stricto Giles 1902 (G3 strain), or C. quinquefasciatus Say 1823 were tested 3-12 days post-emergence with single-sensillum extracellular recordings. Chemicals were obtained from Sigma-Aldrich at the highest purity (typically >99%) and were dissolved in paraffin oil or water. […] Response to clean beads was subtracted from the results reported. Only sensilla with cpA activity of <20 spikes s^−1 to negative control were considered for analysis.
as §1
From the large list of cpA receptor ligands predicted from Example 3 above, 138 compounds were selected based on desirable criteria for application such as smell, presence in natural sources, human safety profile, and cost to procure. These compounds were tested individually using single-sensillum electrophysiology on the cp sensillum of female A. aegypti, according to the procedure described in Example 1 above.

CO2 receptor neuron [3] = assay: Activity of CO2 receptor neuron during spermidine and spermine stimulus windows; format: cell-based; settings: CO2 receptor neuron activity during stimulus window
Description: The polyamines were diluted 0.001 to 10% in paraffin oil (PO). Also shown in Table 7 are the activity values of the CO2 receptor neuron during the spermidine and spermine stimulus windows (error bars=s.e.m.).

CO2 receptor neuron [4] = assay: Amines: inhibition of CO2 receptor neuron activity; format: cell-based; settings: dose response
A. aegypti [5] = assay: Wind tunnel assay of attraction to human foot odor beads; format: in vivo, Aedes aegypti
Description: FIG. 2h is a schematic of wind tunnel assay, where human odor was provided by a dish of glass beads that had been worn in socks for ˜6 hrs (Person 1), and flight behaviour of individual female mosquitoes was recorded for 5 min or until they landed on the beads.
FIGS. 2i-k are bar graphs illustrating the proportion of butyryl chloride pre-exposed and sham treated mosquitoes presented with beads with no odor or foot odor that landed on beads (FIG. 2i), that took off from the release cage (FIG. 2j), and that did take off that succeeded in landing on the beads (FIG. 2k), where n=20-23 individuals per condition, analysed by one-tailed proportion Z-test, *p<0.05, **p<0.01, ***p<0.001, and error bars are s.e.m. All odorants except CO2 were dissolved in paraffin oil at 10^−2 except where indicated. […]

antennal neurons = assay: Electroantennogram (EAG) after butyryl chloride treatment; format: cell-based, Aedes aegypti
Description: FIG. 2e is a graph illustrating averaged traces and FIG. 2f is a graph illustrating mean electroantennograph (EAG) responses to air puffed over glass beads laden with foot odor or a clean bead control, where EAG peaks are normalized to 3-methyl-1-butanol response, n=9, and analysed by t-test.
FIG. 9d illustrates EAG responses normalized to the reference odor 3-methyl-1-butanol. No significant differences due to treatment (n=9; t-test).
Standard whole-antenna recordings were performed with minor modifications. Traces were averaged using Clampfit software (Molecular Devices), and responses were normalized to interspersed pulses of a reference odorant, 3-methyl-1-butanol, according to the formula: Raw response (mV)/(ax+by), where a and b are the responses (mV) to the immediately previous and subsequent reference odor stimulation, respectively, and x and y are the proportion of time elapsed between stimuli (so that x+y=1).

cpA neuron [6] = assay: Butyryl chloride pre-exposure (cpA-off): cp sensillum responses to CO2, skin odorants, foot odor; format: cell-based, Aedes aegypti
Text: FIG. 2b depicts representative cp responses to 0.5-s pulses of indicated odorants after a 3-min pre-exposure to butyryl chloride (10^−2) (cpA-off) or solvent (sham treatment).
FIG. 2c is a bar graph illustrating the mean odorant-evoked responses of the cpA neuron in cpA-off and sham treated mosquitoes, and FIG. 2d is a bar graph illustrating the combined odor-evoked responses of two neighbouring neurons, cpB and cpC, where for both of these figures, n=6 individuals, 1-4 sensilla surveyed per individual; analysed by nested ANOVA, and baseline refers to cpA activity in the presence of room air.
as §1

A. aegypti [7] = assay: Short-range attraction to heat and humidity; format: in vivo, Aedes aegypti; settings: after pre-exposure; control for general deficits
Description: FIG. 9f illustrates mosquitoes' tendency to rest at the top surface of the cage increased in the presence of a warm, wet stimulus. […] No significant differences due to treatment (n=6 replicates; Mann-Whitney rank-sum test).
Ten 6-day-old female A. aegypti were starved 30 hrs in a 7 cm diameter×˜5 cm high cage with wire mesh on one side and placed inside an aquarium. After 5 min a beaker with 750 ml warm water (40° C.) and filter paper soaked with 400 μl water were placed 5 mm above the cage (FIG. 9e). CpA-off and sham treated mosquitoes were video-recorded and counted at 30 s intervals.

cpA neuron [8] = assay: Ultra-prolonged activation: cpA firing after 3-s odorant exposure; format: cell-based, Aedes aegypti
Text: FIG. 3d depicts representative traces from the A. aegypti cp sensillum to 1-s pulses of 0.15% CO2 prior to and following a 3-s exposure to either solvent (paraffin oil) or (E)-2-methylbut-2-enal (10^−1).
FIG. 3e is a graph illustrating the cpA baseline activity in the 1 s prior to each stimulus is elevated following exposure to odorant, where error bars are s.e.m.
FIG. 3f is a bar graph illustrating the mean responses of the cpA neuron to 1-s pulses of 0.15% CO2, calculated by subtracting the 1 s of the baseline activity prior to each stimulus, where n=5-6 individuals, analysed by t-test, ***p<0.001, and error bars are s.e.m.
as §1

C. quinquefasciatus = assay: Semi-field two-choice greenhouse trapping; format: in vivo, Culex quinquefasciatus; settings: 10% lactic acid bait
Text: FIG. 4g is a schematic of two-choice greenhouse experiments with two counterflow geometry traps, in which mosquitoes were trapped overnight in odorant-baited and solvent (water)-baited traps.
Semi-field trapping: Two modified greenhouses at the Agricultural Experiment Station at the University of California, Riverside, were used as described previously^2, with modifications. Fifty laboratory-reared, mated, non-blood fed female C. quinquefasciatus aged 8-14 days and starved for 24 hrs were released each evening around 5 pm and traps collected at ˜7 am. Counter flow geometry traps baited with CO2 (250 ml min^−1, ˜670 mmol/hr) odorant were used as described^2, with modifications. Odorant solutions in water were dispensed from 20 cm long gauze wicks protruding from uncapped 50 ml tubes beneath the trap outflow. For each trial, one baited trap and one control trap (water-filled) were placed in each of two greenhouses (FIG. 4g). For two-choice CO2 trials, water was placed under both traps. For two-choice ethyl pyruvate trials, both traps expelled CO2, and one trap also released ethyl pyruvate from an open 2.8×7 cm glass vial. Since ethyl pyruvate has very low volatility pure compound was used to generate ˜1.7 mmol/hr. An empty vial was placed under control traps. Treatment position and trap were alternated across trials. Volume of solution lost from tubes containing 5%, 10%, or 20% cyclopentanone were measured after each trial and the average loss of molecules calculated respectively for 3 concentrations as (±s.d.) of 0.7 (±0.1), 1.7 (±0.4), and 3.8 (±0.3) mmol/hr, respectively. Preference index=(# mosquitoes in odor-baited trap−# mosquitoes in control trap)/(total # mosquitoes caught in both traps).
The efficacy of cyclopentanone as a lure was tested using traps in controlled semi-field experiments with C. quinquefasciatus, a mosquito present in Southern California, where the experiments took place. 50 female mosquitoes were released overnight in a modified greenhouse that contained two counter-flow geometry mosquito traps (FIG. 4g). One trap was baited with an evaporative lure of cyclopentanone diluted in water, and the second trap was baited with water alone.

CCCC=O [butyraldehyde]
inhibition of the CO2 receptor (CO2 receptor): strongest known inhibitors

CC(=O)C=O [2-oxopropanal]
% Inhibition (cpA neuron [1]): −33.6% | Activation (spikes s^−1) (cpA neuron [2]): −2.0 spikes s^−1

COC(=O)C(C)=O [methyl 2-oxopropanoate]
fold lower concentration for comparable inhibition vs previously reported inhibitors such as 1-hexanol (cpA neuron [1]): ~10 times | inhibition of cpA activity (cpA neuron [1]; overlaid on 0.15% CO2): strongly inhibited

CCCC(=O)O [butanoic acid]
inhibition of the CO2 receptor (CO2 receptor): strongest known inhibitors

CC(C)C=O [2-methylpropanal]
% Inhibition (cpA neuron [1]): 5.8% | Activation (spikes s^−1) (cpA neuron [2]): 29.0 spikes s^−1

NCCCCNCCCN [spermidine]
Ave. Activity (CO2 receptor neuron [3]; 0.001% in paraffin oil): 62.3 | Ave. Activity (CO2 receptor neuron [3]; 0.01% in paraffin oil): 55.3 | Ave. Activity (CO2 receptor neuron [3]; 0.1% in paraffin oil): 10.0 | Ave. Activity (CO2 receptor neuron [3]; 1% in paraffin oil): 5.3 | Ave. Activity (CO2 receptor neuron [3]; 10% in paraffin oil): 6.0 | Average % Inhibition (CO2 receptor neuron [4]; 0.001% in paraffin oil): −1.0% | Average % Inhibition (CO2 receptor neuron [4]; 0.01% in paraffin oil): 10.6% | Average % Inhibition (CO2 receptor neuron [4]; 0.1% in paraffin oil): 85.1% | Average % Inhibition (CO2 receptor neuron [4]; 1% in paraffin oil): 92.2% | Average % Inhibition (CO2 receptor neuron [4]; 10% in paraffin oil): 91.3%

CCCC(=O)Cl [butyryl chloride]
proportion of mosquitoes that initiated upwind flight from release cage (A. aegypti [5]; after pre-exposure (cpA-off)): greatly reduced | proportion of mosquitoes that landed on human odor beads (A. aegypti [5]; after pre-exposure, 5-min assay): substantially reduced | summed responses of antennal neurons to panel of skin odorants (EAG) (antennal neurons; after treatment): unaffected | summed response of antennal neurons to foot odor (EAG) (antennal neurons; with or without treatment): not statistically different | cpA subsequent responses to 1% CO2 (cpA neuron [6]; 3-min exposure to 10^−2 volatiles, tested ~5-20 min after exposure): completely abolished | cpA responses to activating skin odorants (cpA neuron [6]; after 3-min pre-exposure): substantially reduced | time to recovery of cpA to control levels after treatment (cpA neuron [6]; after 3-min pre-exposure): 12 to 24 h | odor-evoked responses of cpB and cpC neurons (cpA neuron [6]; after treatment, selectivity for cpA): not reduced | cpA firing in response to subsequent CO2 stimuli (cpA neuron [6]; single puff of 1% butyryl chloride): inhibits cpA from firing | cpA response to foot odor collected on beads (cpA neuron [6]; tested ~5-20 min after exposure): completely lost | ability or preference for resting at top of cage, warm moist stimulus (A. aegypti [7]): did not impair

NCCCNCCCCNCCCN [spermine]
Ave. Activity (CO2 receptor neuron [3]; 0.001% in paraffin oil): 52.0 | Ave. Activity (CO2 receptor neuron [3]; 0.01% in paraffin oil): 52.3 | Ave. Activity (CO2 receptor neuron [3]; 0.1% in paraffin oil): 14.0 | Ave. Activity (CO2 receptor neuron [3]; 1% in paraffin oil): 2.7 | Ave. Activity (CO2 receptor neuron [3]; 10% in paraffin oil): 2.3 | Average % Inhibition (CO2 receptor neuron [4]; 0.001% in paraffin oil): −5.6% | Average % Inhibition (CO2 receptor neuron [4]; 0.01% in paraffin oil): −3.2% | Average % Inhibition (CO2 receptor neuron [4]; 0.1% in paraffin oil): 76.5% | Average % Inhibition (CO2 receptor neuron [4]; 1% in paraffin oil): 94.8% | Average % Inhibition (CO2 receptor neuron [4]; 10% in paraffin oil): 95.1%

2-ethyl-5(6)-methylpyrazine
% Inhibition (cpA neuron [1]): −2.0% | Activation (spikes s^−1) (cpA neuron [2]): 14.0 spikes s^−1

C/C=C(\C)C=O [(E)-2-methylbut-2-enal]
duration of sustained firing of cpA (cpA neuron [8]; after 3-s exposure): at least 5.5 min | sustained firing of cpA (cpA neuron [8]; after 3-s exposure (10^−1)): ~45 spikes s^−1 | cpA responses to 1-s pulses of 0.15% CO2 relative to controls (cpA neuron [8]; during sustained firing period): significantly reduced | Activation (spikes s^−1) (cpA neuron [2]): 59.5 spikes s^−1

c1cn[nH]c1 [1H-pyrazole]
% Inhibition (cpA neuron [1]): 4.9% | Activation (spikes s^−1) (cpA neuron [2]): 3.5 spikes s^−1

CC(O)C(=O)O (stereo not drawn) [2-hydroxypropanoic acid]
catch vs control traps (C. quinquefasciatus): did not catch significantly more mosquitoes | Activation (spikes s^−1) (cpA neuron [2]): −1.0 spikes s^−1

CC(C)CS [2-methylpropane-1-thiol]
% Inhibition (cpA neuron [1]): −2.9% | Activation (spikes s^−1) (cpA neuron [2]): 37.0 spikes s^−1
